According to PubChem BioAssay (NCI):
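Interpolation was linear, between the two tested concentrations surrounding the appropriate level; five concentrations were tested over 48 hours in 96-well plates. At the GI50, growth is halved. The concentration for full growth arrest is given as TGI.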

Tests used:
Experiment in all cases: NCI tumour cell line growth inhibition, 48 h
[1] = tested on: SNB-19 CNS
[2] = tested on: COLO 205 colon
[3] = tested on: MCF7 breast
[4] = tested on: SF-268 CNS
[5] = tested on: LOX IMVI melanoma
[6] = tested on: RPMI-8226 leukemia
[7] = tested on: MDA-MB-435
[8] = tested on: HL-60(TB) leukemia
[9] = tested on: NCI-H522 lung
[10] = tested on: MALME-3M melanoma

Structure (SMILES) | TGI [1] | TGI [2] | TGI [3] | TGI [4] | TGI [5] | TGI [6] | GI50 [7] | TGI [7] | GI50 [8] | TGI [8] | GI50 [4] | GI50 [9] | TGI [9] | GI50 [10] | TGI [10] | GI50 [2] | GI50 [6] | GI50 [3] | GI50 [1]
CC(=O)O[C@H]1C(=O)[C@]2(C)[C@@H](OC(=O)OCC(O)CO)C[C@H]3OC[C@@]3(OC(C)=O)[C@H]2[C@H](OC(=O)c2ccccc2)[C@]2(O)C[C@H](OC(=O)[C@H](O)[C@@H](NC(=O)c3ccccc3)c3ccccc3)C(C)=C1C2(C)C (stereo partly specified) | > 100 µM | 0.683 µM | > 39.7 µM | > 67.8 µM | 25 µM | < 0.01 µM |  |  |  |  |  |  |  |  |  |  |  |  | 
CC(C)(C)CC(C)(C)Cc1ccc(OCCOCC[N+](C)(C)Cc2ccccc2)cc1 |  |  |  | 3.19 µM |  |  | 1.33 µM | 2.66 µM | 0.365 µM | 1.93 µM | 1.59 µM | 1.55 µM | 4.45 µM |  |  |  |  |  | 
O=C(CCN1CCCC1)Nc1ccc2c(NCCCCc3ccccc3)c3ccccc3nc2c1 |  | 1.87 µM |  |  |  | 0.837 µM | 1.56 µM | 2.95 µM |  |  |  |  |  | 1.72 µM | 3.26 µM | 0.453 µM | 0.258 µM |  | 
COc1cc(-c2ccc(-c3ccc(C(=N)N)s3)s2)cc(OC)c1OC |  |  | 4.32 µM | 3.49 µM |  | 5.72 µM | 1.64 µM | 3.09 µM | 2.7 µM | 5.64 µM | 1.74 µM |  |  | 1.74 µM | 3.53 µM |  | 2.46 µM | 1.66 µM | 
N#Cc1ccc(Nc2nc3nc[nH]c3c(=O)[nH]2)cc1 | > 100 µM | > 100 µM | > 100 µM | > 100 µM | > 100 µM | > 100 µM |  | > 100 µM |  | > 100 µM |  |  | > 100 µM |  | > 100 µM |  |  |  | 
NC(=O)c1cc2ccccc2c(N=Nc2ccccc2)c1O | > 100 µM | > 100 µM |  | > 100 µM | > 100 µM | > 100 µM |  | > 100 µM |  |  |  |  | > 100 µM |  | > 100 µM |  |  |  | 
CN1CCN(c2ccc3nc(-c4ccc(OCCCN5C(=O)c6cccc7cccc(c67)C5=O)cc4)[nH]c3c2)CC1 | 69.6 µM | > 100 µM |  | 99.8 µM |  | 7.75 µM |  |  | 3.13 µM | 7.41 µM | 26.3 µM | 24.9 µM | > 88.8 µM | 4.43 µM | > 30.8 µM | 4.53 µM | 2.58 µM |  | 31 µM
Cc1c2cc[n+](C)cc2c(COC2OC(CO)C(O)C2O)c2c3ccccc3n(C)c12 (stereo unspecified) | > 95.7 µM | > 100 µM | > 100 µM | > 97 µM | > 100 µM | > 100 µM |  |  |  | > 100 µM |  |  | > 100 µM |  | 98.4 µM |  |  |  | 
Cc1c2cc[n+](C)cc2c(C)c2c1[nH]c1ccc(O)cc12 | 22.5 µM | > 91.9 µM | > 39.4 µM | 23.7 µM | > 96.4 µM | > 100 µM |  | > 100 µM |  | > 87.9 µM |  |  | 55.9 µM |  | 26.4 µM |  |  |  | 
CCP(=O)(CC)C(Cl)(Cl)C(=O)NC | > 100 µM | > 100 µM |  |  | > 100 µM | > 100 µM |  | > 100 µM |  | > 100 µM |  |  | > 100 µM |  |  |  |  |  | 
C[Si](C)(C)C#C[I+]c1ccccc1 | > 100 µM | 32.9 µM |  | > 100 µM | 41.2 µM |  |  |  |  | 61.3 µM |  |  | 23.3 µM |  | > 100 µM |  |  |  | 
COc1cccc2c1C(=O)c1c(O)c3c(c(O)c1C2=O)C[C@@](O)(C(C)=O)C[C@@H]3OC1CC(N)C(O)C(C)O1 (stereo partly specified) |  | 1.28 µM [middle of 6 runs] |  |  |  |  | 0.0877 µM |  |  |  | 0.0183 µM | < 0.0155 µM |  |  |  |  | 0.0136 µM |  | < 0.0135 µM
CCOC(=O)c1c(NC(=S)NCc2ccccc2)sc2c1CCN(C)C2 | > 100 µM | > 100 µM | > 100 µM | > 100 µM |  | > 100 µM |  |  |  | 36.2 µM |  |  |  |  |  |  |  |  | 
